From patent US7786127B2, “Benzimidazole thiophene compounds” (Glaxo SmithKline LLC, priority 2005, dated 2010)

Tests used:
Format in all cases: cell-based
[1] = test system: normal human foreskin fibroblasts (HFF); experiment: Methylene blue growth inhibition assay, HFF; details: Fibroblast, 72 h
Description: (§1) Generally, exponentially growing cell lines of different tumor origins, cultured in appropriate media containing 10% fetal bovine serum at 37° C. in a 5% CO2 incubator were plated at low density (less than 2000 cells/well) in 96-well plates. Twenty four hours post-plating, cells were treated with different concentrations of test compounds ranging from 10 uM to 0.04 nM. Several wells were left untreated as a control. Seventy two hours post-treatment, cell numbers were determined using 10 μl per well of methylene blue (Sigma M9140) (0.5% in 50:50 Ethanol:water). […] Plates were read on a microplate reader, measuring the OD at 620 nm. […]
(§2) In one assay, normal human foreskin fibroblasts (HFF), human colon (HCT116, RKO), lung (H460, A549) and breast (MCF7) tumor cell lines were cultured in high glucose DMEM (Life Technologies) containing 10% fetal bovine serum (FBS) at 37° C. in a humidified 5% CO2, 95% air incubator. Cells were harvested using trypsin/EDTA, counted using a haemocytometer, and plated in 100 μL of culture media per well, at the following densities, in a 96-well tissue culture plate (Falcon 3075): HFF 5,000 cells/well, HCT116 3,000 cells/well, RKO 2,500 cells/well, H460 2,500 cells/well, A549 5,000 cells/well, MCF7 4,000 cells/well. […] Optical density at 620 nm was measured on a microplate reader. […]

MCF7 = experiment: Methylene blue growth inhibition assay, MCF7; details: Homo sapiens, 72 h
Description: as §1, §2

A549 = experiment: Methylene blue growth inhibition assay, A549; details: Homo sapiens, 72 h
Description: as §1, §2

RKO = experiment: Methylene blue growth inhibition assay, RKO; details: Homo sapiens, 72 h
Description: as §1, §2

HCT116 = experiment: Methylene blue growth inhibition assay, HCT116; details: Homo sapiens, HCT-116, 72 h
Description: as §1, §2

H460 = experiment: Methylene blue growth inhibition assay, H460; details: Homo sapiens, NCI-H460, 72 h
Description: as §1, §2

| SMILES | IC50 [1] | IC50 (MCF7) | IC50 (A549) | IC50 (RKO) | IC50 (HCT116) | IC50 (H460) |
| --- | --- | --- | --- | --- | --- | --- |
| C[C@@H](Oc1cc(-n2cnc3ccc(OC4CCN(C)CC4)cc32)sc1C(N)=O)c1ccccc1C(F)(F)F [Example 7, 5-{6-[(1-Methyl-4-piperidinyl)oxy]-1H-benzimidazol-1-yl}-3-({(1R)-1-[2-(trifluoromethyl)phenyl]ethyl}oxy)-2-thiophenecarboxamide] | 0.1 to 1 µM | < 0.1 µM | < 0.1 µM | < 0.1 µM | < 0.1 µM | < 0.1 µM |
| C[C@@H](Oc1cc(-n2cnc3ccc(OC4CCN(C)CC4)cc32)sc1C(N)=O)c1ccccc1Cl [Example 8, 3-{[(1R)-1-(2-Chlorophenyl)ethyl]oxy}-5-{6-[(1-methyl-4-piperidinyl)oxy]-1H-benzimidazol-1-yl}-2-thiophenecarboxamide] | < 0.1 µM | – | < 0.1 µM | < 0.1 µM | < 0.1 µM | < 0.1 µM |
